Reference: publication PMC6882135 (ACS Omega, 2019)

Experiments:
human HDAC11 [1] = molecular target: T1, human HDAC11 (Homo sapiens, UniProt Q96DB2); experiment: Discontinuous fluorescence-based; format: biochemical
T1 sequence (Q96DB2 1-347): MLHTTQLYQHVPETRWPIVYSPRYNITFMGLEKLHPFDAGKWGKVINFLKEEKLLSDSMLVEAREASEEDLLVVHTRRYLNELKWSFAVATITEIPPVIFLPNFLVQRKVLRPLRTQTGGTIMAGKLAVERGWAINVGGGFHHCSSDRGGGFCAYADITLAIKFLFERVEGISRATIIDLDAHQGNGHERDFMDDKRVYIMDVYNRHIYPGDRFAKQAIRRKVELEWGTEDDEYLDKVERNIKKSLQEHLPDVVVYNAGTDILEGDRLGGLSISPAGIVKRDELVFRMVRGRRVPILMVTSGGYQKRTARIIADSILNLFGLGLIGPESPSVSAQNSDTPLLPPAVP

human HDAC11 [2] = molecular target: T1, human HDAC11; experiment: Continuous fluorescence HDAC11 activity assay with peptidic substrate 1; format: biochemical

Structure (SMILES)	IC50 (human HDAC11 [1]) [µM]	IC50 (human HDAC11 [2]) [µM]
Nc1ccccc1NC(=O)c1ccc(CNc2nccc(-c3cccnc3)n2)cc1 [mocetinostat, N-(2-aminophenyl)-4-(4-pyridin-3-ylpyrimidin-2-ylamino)methylbenzamide]	> 40	> 40
C/C=C1\NC(=O)[C@H]2CSSCC/C=C/[C@H](CC(=O)N[C@H](C(C)C)C(=O)N2)OC(=O)[C@H](C(C)C)NC1=O [romidepsin]	4.81 ± 0.04	
CCCC(CCC)C(=O)O [valproate]	> 40	> 40
